Experimental data taken from US20110144128A1, “Heterocyclic Carboxamide Compounds as Steroid Nuclear Receptors Ligands” (EXELIXIS, INC., priority 2005, published 2011).

What was measured:
AR, ERα, GR and PR = assay: selectivity assays GAL4-AR, GAL4-ERα, GAL4-GR and GAL4-PR, antagonist mode; format: cell-based; conditions: antagonist activity against MR compared to AR
Procedure: In certain cases, compounds were also evaluated for activity in selectivity assays with other steroid hormone receptor members, including AR, ER, GR and PR, as well as GAL4 alone. Steroid receptors used for selectivity assays were essentially generated as described above for pCMX-GAL4-MR, and comprised the LBD and a portion of the hinge region of the nuclear receptor of interest cloned in frame into the vector pCMX-GAL4 (Perlmann et al., 1993,Genes & Development 7:1411-1422) as described above.
Assays run in antagonist mode included agonists as follows: AR; 25 nM dihydrotestosterone (DHT), ER; 4.5 nM estradiol, GR; 20 nM dexamethasone, and PR; 2 nM medroxyprogesterone (MPA), respectively. Assays run in agonist mode contained no supplemental compounds.
(§1) The following table provides in vitro MR activity data of representative compounds described in the Examples. […] The “+” mark under the selectivity column is given to those compounds having greater than ten-fold antagonist activity against MR compared to at least one nuclear receptor selected from AR, ERα, GR and PR, as determined from the GAL4-AR, GAL4-ERα, GAL4-GR and GAL4-PR assays. The “++” mark under the selectivity column identifies those compounds having greater than ten-fold antagonist activity against MR compared to the four nuclear receptors AR, ERα, GR and PR, as determined from the GAL4-AR, GAL4-ERα, GAL4-GR and GAL4-PR assays.

human MR = molecular target: T1, human MR (Homo sapiens, UniProt P08235); assay: GAL4-MR cell based assay, antagonist format
T1 construct: expressed in transfected cells; host or cells: CV-1 (African Green Monkey Kidney Cells), transiently transfected with pCMX-GAL4-MR
T1 sequence (P08235 671-984): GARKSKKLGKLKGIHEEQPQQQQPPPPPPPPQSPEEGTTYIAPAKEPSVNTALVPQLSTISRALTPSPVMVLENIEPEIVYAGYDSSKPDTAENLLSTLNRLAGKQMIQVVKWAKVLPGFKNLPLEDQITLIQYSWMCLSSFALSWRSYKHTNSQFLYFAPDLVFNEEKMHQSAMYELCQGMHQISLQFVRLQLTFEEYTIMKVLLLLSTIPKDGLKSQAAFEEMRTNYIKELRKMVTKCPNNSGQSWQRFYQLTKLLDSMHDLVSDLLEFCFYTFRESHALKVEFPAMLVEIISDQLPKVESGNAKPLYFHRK
Procedure: Compound activity was determined in a cell-based assay using a GAL4-MR chimera to identify compounds with the ability to modulate MR activity.
The pCMX-GAL4-MR expression plasmid was constructed by cloning nucleotides encoding amino acids 671 to 984 of human MR (see GenBank sequence AAA59571) into the vector pCMX-GAL4 (Perlmann et al., 1993,Genes & Development 7:1411-1422) comprising nucleotides encoding for amino acids 1-147 of the GAL4 DNA binding domain.
The TK-MH 100x4-Luc (GAL4UAS-TK-Luciferase) reporter construct was constructed by insertion of four copies of the Gal4 UAS (Kang et al. 1993, J. Biol. Chem. 268:9629-9635) into the Hind III site of TK-Luc. The parental plasmid, TK-Luc, was prepared by insertion of the Herpes simplex virus thymidine kinase gene promoter (−105 to +51) obtained from the plasmid pBLCAT2 by digestion with HindIII and XhoI (described in Luckow et al., 1987, Nuc. Acid. Res. 15:5490) into the plasmid MMTV-LUC described by Hollenberg and Evans, 1988, Cell 55:899-906) after removal of MMTV-LTR promoter sequence from MMTV-LUC via digestion with HindIII and XhoI. Correct cloning was confirmed by restriction digestion and/or sequencing.
Assays were performed using CV-1 (African Green Monkey Kidney Cells) (ATCC) cells grown in T175 flasks at a density of 3×10^6 cells/flask in DMEM with 5% FBS. Cells were transfected one day after plating at 70-80 percent confluency with a DNA mixture containing (per T175 flask) 9 […] pCMX-GAL4-MR, 9 μg TK-MH100x4-Luc, and 2 μg pCMX β-Gal using the transfection reagent FuGENE6 (Roche Molecular Biochemicals, Indianapolis, Ind.) following recommended protocols and instructions provided by the manufacturer, and incubated with transfection reagents for 5 hours at 37° C.
Transfected cells were trypsinized, resuspended in media, and 45 μL was added to assay plates at a density of approximately 5,000 cells/well using a MultiDrop dispenser (MTX Lab Systems, Inc., VA). The assay plates containing both compounds and screening cells were incubated for approximately 20 hours at 37° C. and 5% CO2 in a tissue culture incubator.
After incubation of the transfected cells with compounds, Lysis buffer (1% Triton X-100, 10% Glycerol, 5 mM DTT, 1 mM EGTA, 25 mM Tricine, pH 7.8) and Luciferin assay buffer (0.73 mM ATP, 22.3 mM Tricine, 0.11 mM EDTA, 33.3 mM DTT, 0.2M MgSO4, 11 mM Luciferin, 6.1 mM Coenzyme A, 0.01 mM HEPES, pH 7.8) were prepared. Media was removed from the plates and lysis buffer and luciferin assay buffer mixed in a 1:1 ratio and then 30 μl of the mixture was added to each well using a Multidrop dispenser. Plates were read on the Northstar (Applied Biosystems, Foster City, Calif.) and data was analyzed using ActivityBase (ID Business Solutions, Ltd., Guildford, Surrey, UK). If required, luciferase values may be normalized for transfection efficiency by measuring β-galactosidase activity based on expression from the pCMX-βGal expression plasmid as described previously (Willy et al., 1995, Gene & Development, 9:1033-1045).
as §1

IC50 (human MR) | SMILES | Selectivity (AR, ERα, GR and PR)
1000 to 5000 nM | CCNS(=O)(=O)c1ccc(NC(=O)c2cc(C)n(-c3ccccc3C(F)(F)F)c2C)cc1 [2,5-dimethyl-1-[2-(trifluoromethyl)phenyl]-1H-pyrrole-3-carboxylic acid (4-ethylsulfamoyl-phenyl)-amide] | + (greater than ten-fold antagonist activity against MR compared to at least one nuclear receptor selected from AR, ERα, GR and PR)
< 500 nM | CCc1nc(C(=O)Nc2ccc(S(C)(=O)=O)cc2)c(C)n1-c1ccccc1C(F)(F)F [2-ethyl-5-methyl-1-(2-trifluoromethyl-phenyl)-1H-imidazole-4-carboxylic acid (4-methanesulfonyl-phenyl)-amide] | ++ (greater than ten-fold antagonist activity against MR compared to the four nuclear receptors AR, ERα, GR and PR)
< 500 nM | Cc1[nH]c(C(=O)Nc2ccc(S(C)(=O)=O)cc2)c(C)c1-c1ccccc1C(F)(F)F [3,5-dimethyl-4-(2-trifluoromethyl-phenyl)-1H-pyrrole-2-carboxylic acid (4-methanesulfonyl-phenyl)-amide] | ++ (greater than ten-fold antagonist activity against MR compared to the four nuclear receptors AR, ERα, GR and PR)
< 500 nM | Cc1c(C(=O)Nc2ccc(S(C)(=O)=O)cc2)cc(-c2ccc(F)cc2)n1-c1ccccc1C(F)(F)F [5-(4-fluorophenyl)-2-methyl-1-(2-trifluoromethylphenyl)-1H-pyrrole-3-carboxylic acid (4-methanesulfonyl-phenyl) amide] | ++ (greater than ten-fold antagonist activity against MR compared to the four nuclear receptors AR, ERα, GR and PR)
